Test results taken from patent publication US5543429A, “Antifungal agents” (Merck & Co., Inc., priority 1995, dated 1996).
Converted amounts (≈) assume the structure as drawn.

Assays:
Plasmopara viticola = assay: in vivo protectant assay, downy mildew on grape; settings: P. viticola
Botrytis cinerea = assay: in vivo protectant assay, grey mold on pepper; settings: B. cinerea
Phytophthora infestans = format: in vivo; settings: P. infestans, miniature plant assay
Alternaria solani = assay: in vivo protectant assay, early blight on tomato; settings: A. solani, miniature plant assay
Septoria nodorum = assay: in vivo protectant assay, glume blotch on wheat; settings: S. nodorum, scaled up, high spray volume assay, 100 ppm
Puccinia recondita = assay: in vivo protectant assay, wheat leaf rust on wheat; settings: P. recondita, scaled up, high spray volume assay, 100 ppm
panel of seven pathogens = assay: in vivo protectant assay, panel of seven phytopathogens
[1] = test system: Aspergillus flavus, Fusarium oxysporum, Ustilago zeae and the like; assay: agar plate inhibition zone test with filamentous fungi; format: cell-based; settings: agar plates, 28°C or 37°C, 24 hours
Candida albicans MY1055 = assay: broth microdilution assay (MIC/MFC); settings: for MIC: MY1055, 24 h, read-out: Minimum Inhibitory Concentration (MIC); for MFC: MY1055, read-out: Minimum Fungicidal Concentration (MFC)
Candida glabrata MY1381 = assay: broth microdilution assay (MIC/MFC); settings: Nakaseomyces glabratus; for MIC: MY1381, 24 h, read-out: Minimum Inhibitory Concentration (MIC); for MFC: MY1381, read-out: Minimum Fungicidal Concentration (MFC)
[2] = test system: Candida parapsilosis MY1010; assay: broth microdilution assay (MIC/MFC); settings: Lodderomyces parapsilosis; for MIC: MY1010, 24 h, read-out: Minimum Inhibitory Concentration (MIC); for MFC: MY1010, read-out: Minimum Fungicidal Concentration (MFC)
[3] = test system: Candida pseudotropicalis MY2099; assay: broth microdilution assay (MIC/MFC); settings: Kluyveromyces marxianus; for MIC: MY2099, 24 h, read-out: Minimum Inhibitory Concentration (MIC); for MFC: MY2099, read-out: Minimum Fungicidal Concentration (MFC)
[4] = test system: Candida tropicalis MY1124; assay: broth microdilution assay (MIC/MFC); settings: for MIC: MY1124, 24 h, read-out: Minimum Inhibitory Concentration (MIC); for MFC: MY1124, read-out: Minimum Fungicidal Concentration (MFC)
Candida albicans CLY539 = assay: broth microdilution assay (MIC/MFC); settings: for MIC: CLY539, 24 h, read-out: Minimum Inhibitory Concentration (MIC); for MFC: CLY539, read-out: Minimum Fungicidal Concentration (MFC)
Candida albicans CA2 = assay: broth microdilution assay (MIC/MFC); settings: for MIC: CA2, 24 h, read-out: Minimum Inhibitory Concentration (MIC); for MFC: CA2, read-out: Minimum Fungicidal Concentration (MFC)
[5] = test system: Candida tropicalis MY1012; assay: broth microdilution assay (MIC/MFC); settings: for MIC: MY1012, 24 h, read-out: Minimum Inhibitory Concentration (MIC); for MFC: MY1012, read-out: Minimum Fungicidal Concentration (MFC)
[6] = test system: Candida guillermondii MY1019; assay: broth microdilution assay (MIC/MFC); settings: for MIC: MY1019, 24 h, read-out: Minimum Inhibitory Concentration (MIC); for MFC: MY1019, read-out: Minimum Fungicidal Concentration (MFC)
[7] = test system: Cryptococcus neoformans MY2061; assay: broth microdilution assay (MIC/MFC); settings: MY2061, 48 h; for MFC: read-out: Minimum Fungicidal Concentration (MFC); for MIC: read-out: Minimum Inhibitory Concentration (MIC)
[8] = test system: Cryptococcus neoformans MY2062; assay: broth microdilution assay (MIC/MFC); settings: MY2062, 48 h; for MFC: read-out: Minimum Fungicidal Concentration (MFC); for MIC: read-out: Minimum Inhibitory Concentration (MIC)
[9] = test system: Saccharomyces cerevisiae MY2140; assay: broth microdilution assay (MIC/MFC); settings: for MIC: MY2140, 24 h, read-out: Minimum Inhibitory Concentration (MIC); for MFC: MY2140, read-out: Minimum Fungicidal Concentration (MFC)
[10] = test system: Saccharomyces cerevisiae MY2141; assay: broth microdilution assay (MIC/MFC); settings: for MIC: MY2141, 24 h, read-out: Minimum Inhibitory Concentration (MIC); for MFC: MY2141, read-out: Minimum Fungicidal Concentration (MFC)
[11] = test system: Aspergillus fumigatus MY4839; assay: broth microdilution assay (MIC/MFC); settings: MY4839, 24 h, read-out: Minimum Inhibitory Concentration (MIC)
[12] = test system: Aspergillus fumigatus MY5668; assay: broth microdilution assay (MIC/MFC); settings: MY5668, 24 h, read-out: Minimum Inhibitory Concentration (MIC)
[13] = scaled up, high spray volume assay, 100 ppm

Compound: C=CC1=CCC2C(CC3OC(=O)C4(C)C(O)CCC2(C)C34O)C1C (stereo not drawn) [Compound II]
- percent control of disease (Plasmopara viticola; miniature plant assay): 80-95%
- percent control of disease (Plasmopara viticola; protectant assay, 11 ppm): 50-85%
- percent control of disease (Plasmopara viticola; [13]): 100%
- percent control of disease (Botrytis cinerea; miniature plant assay): 80-95%
- percent control of disease (Botrytis cinerea; protectant assay, 11 ppm): 50-85%
- percent control of disease (Botrytis cinerea; [13]): 100%
- percent control of disease (Phytophthora infestans): 80-95%
- percent control of disease (Alternaria solani): 80-95%
- percent control of disease (Septoria nodorum): 60%
- percent control of disease (Puccinia recondita): 100%
- control of phytopathogens (panel of seven pathogens): very efficacious at controlling six of the phytopathogens
- inhibition of growth of filamentous fungi [1]: effectively inhibit growth of the fungal organisms
- MIC (Candida albicans MY1055): 2 µg/mL (≈ 6.02 µM)
- MFC (Candida albicans MY1055): 4 µg/mL (≈ 12 µM)
- MIC (Candida glabrata MY1381): 4 µg/mL (≈ 12 µM)
- MFC (Candida glabrata MY1381): 4 µg/mL (≈ 12 µM)
- MIC [2]: 8 µg/mL (≈ 24.1 µM)
- MFC [2]: 8 µg/mL (≈ 24.1 µM)
- MIC [3]: 1 µg/mL (≈ 3.01 µM)
- MFC [3]: 2 µg/mL (≈ 6.02 µM)
- MIC [4]: 4 µg/mL (≈ 12 µM)
- MFC [4]: 8 µg/mL (≈ 24.1 µM)
- MIC (Candida albicans CLY539): 2 µg/mL (≈ 6.02 µM)
- MFC (Candida albicans CLY539): 2 µg/mL (≈ 6.02 µM)
- MIC (Candida albicans CA2): 32 µg/mL (≈ 96.3 µM)
- MFC (Candida albicans CA2): 4 µg/mL (≈ 12 µM)
- MIC [5]: 2 µg/mL (≈ 6.02 µM)
- MFC [5]: 2 µg/mL (≈ 6.02 µM)
- MIC [6]: 8 µg/mL (≈ 24.1 µM)
- MFC [6]: 16 µg/mL (≈ 48.1 µM)
- MFC [7]: 1 µg/mL (≈ 3.01 µM)
- MIC [7]: 2 µg/mL (≈ 6.02 µM)
- MFC [8]: 1 µg/mL (≈ 3.01 µM)
- MIC [8]: 1 µg/mL (≈ 3.01 µM)
- MIC [9]: 1 µg/mL (≈ 3.01 µM)
- MFC [9]: 2 µg/mL (≈ 6.02 µM)
- MIC [10]: 0.5 µg/mL (≈ 1.5 µM)
- MFC [10]: 1 µg/mL (≈ 3.01 µM)
- MIC [11]: 2 µg/mL (≈ 6.02 µM)
- MIC [12]: 1 µg/mL (≈ 3.01 µM)

Compound: C[C@@H]1[C@H](O)[C@@H](C)/C=C/C=C/C=C/C=C/C=C/C=C/C=C/[C@H](O[C@@H]2O[C@H](C)[C@@H](O)[C@H](N)[C@@H]2O)C[C@@H]2O[C@](O)(C[C@@H](O)C[C@@H](O)[C@H](O)CC[C@@H](O)C[C@@H](O)CC(=O)O[C@H]1C)C[C@H](O)[C@H]2C(=O)O [Amphotericin B, amphotericin B, reference compound]
- MIC (Candida albicans MY1055): 1 µg/mL (≈ 1.08 µM)
- MFC (Candida albicans MY1055): 1 µg/mL (≈ 1.08 µM)
- MIC (Candida glabrata MY1381): 2 µg/mL (≈ 2.16 µM)
- MFC (Candida glabrata MY1381): 2 µg/mL (≈ 2.16 µM)
- MIC [2]: 1 µg/mL (≈ 1.08 µM)
- MFC [2]: 1 µg/mL (≈ 1.08 µM)
- MIC [3]: 2 µg/mL (≈ 2.16 µM)
- MFC [3]: 2 µg/mL (≈ 2.16 µM)
- MIC [4]: 2 µg/mL (≈ 2.16 µM)
- MFC [4]: 2 µg/mL (≈ 2.16 µM)
- MIC (Candida albicans CLY539): 1 µg/mL (≈ 1.08 µM)
- MFC (Candida albicans CLY539): 2 µg/mL (≈ 2.16 µM)
- MIC (Candida albicans CA2): 1 µg/mL (≈ 1.08 µM)
- MFC (Candida albicans CA2): 1 µg/mL (≈ 1.08 µM)
- MIC [5]: 16 µg/mL (≈ 17.3 µM)
- MFC [5]: 16 µg/mL (≈ 17.3 µM)
- MIC [6]: 1 µg/mL (≈ 1.08 µM)
- MFC [6]: 2 µg/mL (≈ 2.16 µM)
- MIC [8]: 1 µg/mL (≈ 1.08 µM)
- MIC [9]: 1 µg/mL (≈ 1.08 µM)
- MFC [9]: 1 µg/mL (≈ 1.08 µM)
- MIC [10]: 1 µg/mL (≈ 1.08 µM)
- MFC [10]: 1 µg/mL (≈ 1.08 µM)
- MIC [11]: 2 µg/mL (≈ 2.16 µM)
- MIC [12]: 2 µg/mL (≈ 2.16 µM)

Compound: C=CC1C(=C)CCC2C1CC1OC(=O)C3(C)C(O)CCC2(C)C13O (stereo not drawn) [Compound I]
- percent control of disease (Plasmopara viticola; 200 ppm): up to 80%
- percent control of disease (Botrytis cinerea; 200 ppm): up to 80%
- inhibition of growth of filamentous fungi [1]: effectively inhibit growth of the fungal organisms
- MIC (Candida albicans MY1055): 2 µg/mL (≈ 6.02 µM)
- MFC (Candida albicans MY1055): 4 µg/mL (≈ 12 µM)
- MIC (Candida glabrata MY1381): 8 µg/mL (≈ 24.1 µM)
- MFC (Candida glabrata MY1381): 8 µg/mL (≈ 24.1 µM)
- MIC [2]: 8 µg/mL (≈ 24.1 µM)
- MFC [2]: 32 µg/mL (≈ 96.3 µM)
- MIC [3]: 4 µg/mL (≈ 12 µM)
- MFC [3]: 4 µg/mL (≈ 12 µM)
- MIC [4]: 8 µg/mL (≈ 24.1 µM)
- MFC [4]: 16 µg/mL (≈ 48.1 µM)
- MIC (Candida albicans CLY539): 4 µg/mL (≈ 12 µM)
- MFC (Candida albicans CLY539): 2 µg/mL (≈ 6.02 µM)
- MIC (Candida albicans CA2): 8 µg/mL (≈ 24.1 µM)
- MFC (Candida albicans CA2): 8 µg/mL (≈ 24.1 µM)
- MIC [5]: 2 µg/mL (≈ 6.02 µM)
- MFC [5]: 2 µg/mL (≈ 6.02 µM)
- MIC [6]: 8 µg/mL (≈ 24.1 µM)
- MFC [6]: 16 µg/mL (≈ 48.1 µM)
- MFC [7]: 0.25 µg/mL (≈ 0.752 µM)
- MIC [7]: 0.5 µg/mL (≈ 1.5 µM)
- MFC [8]: 0.25 µg/mL (≈ 0.752 µM)
- MIC [8]: 0.25 µg/mL (≈ 0.752 µM)
- MIC [9]: 2 µg/mL (≈ 6.02 µM)
- MFC [9]: 8 µg/mL (≈ 24.1 µM)
- MIC [10]: 1 µg/mL (≈ 3.01 µM)
- MFC [10]: 8 µg/mL (≈ 24.1 µM)
- MIC [11]: 4 µg/mL (≈ 12 µM)
- MIC [12]: 8 µg/mL (≈ 24.1 µM)
